In PubChem BioAssay AID1259407 (Chemical Carcinogenesis Research Information System (CCRIS), 2018):
Activity calls are given as the source filed them. How the calls were made is not given here.

System: CCRIS mutagenicity, Ames/micronucleus/aberration tests
Assay: CCRIS mutagenicity studies
[1] = Test System: AMES SALMONELLA TYPHIMURIUM, Strain/Indicator: TA98, Metabolic Activation: NONE, Method: STANDARD PLATE
[2] = Test System: AMES SALMONELLA TYPHIMURIUM, Strain/Indicator: TA100, Metabolic Activation: NONE, Method: STANDARD PLATE
[3] = Test System: AMES SALMONELLA TYPHIMURIUM, Strain/Indicator: TA1535, Metabolic Activation: NONE, Method: PREINCUBATION
[4] = Test System: AMES SALMONELLA TYPHIMURIUM, Strain/Indicator: TA1537, Metabolic Activation: NONE, Method: PREINCUBATION

For `O=[N+]([O-])O`, the mutagenic call (Test System: AMES SALMONELLA TYPHIMURIUM, Strain/Indicator: TA97, Metabolic Activation: NONE, Method: PREINCUBATION) was “inactive; negative”, the mutagenic call (Test System: AMES SALMONELLA TYPHIMURIUM, Strain/Indicator: TA97, Metabolic Activation: S-9, Method: PREINCUBATION) was “inactive; negative” and the mutagenic call (Test System: AMES SALMONELLA TYPHIMURIUM, Strain/Indicator: TA97A, Metabolic Activation: NONE, Method: PREINCUBATION) was “inactive; negative”. For the same compound, the mutagenic call (Test System: AMES SALMONELLA TYPHIMURIUM, Strain/Indicator: TA97A, Metabolic Activation: NONE, Method: STANDARD PLATE) was “inactive; negative”, the mutagenic call (Test System: AMES SALMONELLA TYPHIMURIUM, Strain/Indicator: TA97A, Metabolic Activation: RAT, LIVER, S-9, PHENOBARBITAL AND BETA-NAPHTHOFLAVONE, Method: PREINCUBATION) was “inactive; negative” and the mutagenic call (Test System: AMES SALMONELLA TYPHIMURIUM, Strain/Indicator: TA97A, Metabolic Activation: RAT, LIVER, S-9, PHENOBARBITAL AND BETA-NAPHTHOFLAVONE, Method: STANDARD PLATE) was “inactive; negative”. The mutagenic call [1] was “inactive; negative”, the mutagenic call (Test System: AMES SALMONELLA TYPHIMURIUM, Strain/Indicator: TA98, Metabolic Activation: RAT, LIVER, S-9, AROCLOR 1254, Method: STANDARD PLATE) was “inactive; negative” and the mutagenic call (Test System: AMES SALMONELLA TYPHIMURIUM, Strain/Indicator: TA98, Metabolic Activation: RAT, LIVER, S-9, PHENOBARBITAL AND BETA-NAPHTHOFLAVONE, Method: PREINCUBATION) was “inactive; negative”. The mutagenic call (Test System: AMES SALMONELLA TYPHIMURIUM, Strain/Indicator: TA98, Metabolic Activation: RAT, LIVER, S-9, PHENOBARBITAL AND BETA-NAPHTHOFLAVONE, Method: STANDARD PLATE) was “inactive; negative”, the mutagenic call [2] was “inactive; negative” and the mutagenic call (Test System: AMES SALMONELLA TYPHIMURIUM, Strain/Indicator: TA100, Metabolic Activation: RAT, LIVER, S-9, AROCLOR 1254, Method: STANDARD PLATE) was “inactive; negative”. For the same compound, the mutagenic call (Test System: AMES SALMONELLA TYPHIMURIUM, Strain/Indicator: TA100, Metabolic Activation: RAT, LIVER, S-9, PHENOBARBITAL AND BETA-NAPHTHOFLAVONE, Method: PREINCUBATION) was “inactive; negative”, the mutagenic call (Test System: AMES SALMONELLA TYPHIMURIUM, Strain/Indicator: TA100, Metabolic Activation: RAT, LIVER, S-9, PHENOBARBITAL AND BETA-NAPHTHOFLAVONE, Method: STANDARD PLATE) was “inactive; negative” and the mutagenic call (Test System: AMES SALMONELLA TYPHIMURIUM, Strain/Indicator: TA102, Metabolic Activation: NONE, Method: PREINCUBATION) was “inactive; negative”. For the same compound, the mutagenic call (Test System: AMES SALMONELLA TYPHIMURIUM, Strain/Indicator: TA102, Metabolic Activation: S-9, Method: PREINCUBATION) was “inactive; negative”, the mutagenic call (Test System: AMES SALMONELLA TYPHIMURIUM, Strain/Indicator: TA102C, Metabolic Activation: NONE, Method: PREINCUBATION) was “inactive; negative” and the mutagenic call (Test System: AMES SALMONELLA TYPHIMURIUM, Strain/Indicator: TA102C, Metabolic Activation: NONE, Method: STANDARD PLATE) was “inactive; negative”. The mutagenic call (Test System: AMES SALMONELLA TYPHIMURIUM, Strain/Indicator: TA102C, Metabolic Activation: RAT, LIVER, S-9, PHENOBARBITAL AND BETA-NAPHTHOFLAVONE, Method: PREINCUBATION) was “inactive; negative”, the mutagenic call (Test System: AMES SALMONELLA TYPHIMURIUM, Strain/Indicator: TA102C, Metabolic Activation: RAT, LIVER, S-9, PHENOBARBITAL AND BETA-NAPHTHOFLAVONE, Method: STANDARD PLATE) was “inactive; negative” and the mutagenic call [3] was “inactive; negative”. For the same compound, the mutagenic call (Test System: AMES SALMONELLA TYPHIMURIUM, Strain/Indicator: TA1535, Metabolic Activation: NONE, Method: STANDARD PLATE) was “inactive; negative”, the mutagenic call (Test System: AMES SALMONELLA TYPHIMURIUM, Strain/Indicator: TA1535, Metabolic Activation: RAT, LIVER, S-9, AROCLOR 1254, Method: STANDARD PLATE) was “inactive; negative” and the mutagenic call (Test System: AMES SALMONELLA TYPHIMURIUM, Strain/Indicator: TA1535, Metabolic Activation: RAT, LIVER, S-9, PHENOBARBITAL AND BETA-NAPHTHOFLAVONE, Method: PREINCUBATION) was “inactive; negative”. For the same compound, the mutagenic call (Test System: AMES SALMONELLA TYPHIMURIUM, Strain/Indicator: TA1535, Metabolic Activation: RAT, LIVER, S-9, PHENOBARBITAL AND BETA-NAPHTHOFLAVONE, Method: STANDARD PLATE) was “inactive; negative”, the mutagenic call [4] was “inactive; negative” and the mutagenic call (Test System: AMES SALMONELLA TYPHIMURIUM, Strain/Indicator: TA1537, Metabolic Activation: NONE, Method: STANDARD PLATE) was “inactive; negative”. The mutagenic call (Test System: AMES SALMONELLA TYPHIMURIUM, Strain/Indicator: TA1537, Metabolic Activation: RAT, LIVER, S-9, AROCLOR 1254, Method: STANDARD PLATE) was “inactive; negative”, the mutagenic call (Test System: AMES SALMONELLA TYPHIMURIUM, Strain/Indicator: TA1537, Metabolic Activation: RAT, LIVER, S-9, PHENOBARBITAL AND BETA-NAPHTHOFLAVONE, Method: PREINCUBATION) was “inactive; negative” and the mutagenic call (Test System: AMES SALMONELLA TYPHIMURIUM, Strain/Indicator: TA1537, Metabolic Activation: RAT, LIVER, S-9, PHENOBARBITAL AND BETA-NAPHTHOFLAVONE, Method: STANDARD PLATE) was “inactive; negative”. The mutagenic call (Test System: AMES SALMONELLA TYPHIMURIUM, Strain/Indicator: TA1538, Metabolic Activation: NONE, Method: PREINCUBATION) was “inactive; negative”, the mutagenic call (Test System: AMES SALMONELLA TYPHIMURIUM, Strain/Indicator: TA1538, Metabolic Activation: NONE, Method: STANDARD PLATE) was “inactive; negative” and the mutagenic call (Test System: AMES SALMONELLA TYPHIMURIUM, Strain/Indicator: TA1538, Metabolic Activation: RAT, LIVER, S-9, AROCLOR 1254, Method: STANDARD PLATE) was “inactive; negative”. For the same compound, the mutagenic call (Test System: AMES SALMONELLA TYPHIMURIUM, Strain/Indicator: TA1538, Metabolic Activation: RAT, LIVER, S-9, PHENOBARBITAL AND BETA-NAPHTHOFLAVONE, Method: PREINCUBATION) was “inactive; negative”, the mutagenic call (Test System: AMES SALMONELLA TYPHIMURIUM, Strain/Indicator: TA1538, Metabolic Activation: RAT, LIVER, S-9, PHENOBARBITAL AND BETA-NAPHTHOFLAVONE, Method: STANDARD PLATE) was “inactive; negative” and the mutagenic call (Test System: E. COLI, Strain/Indicator: WP2, Metabolic Activation: NONE, Method: STANDARD PLATE) was “inactive; negative”. For the same compound, the mutagenic call (Test System: E. COLI, Strain/Indicator: WP2, Metabolic Activation: RAT, LIVER, S-9, AROCLOR 1254, Method: STANDARD PLATE) was “inactive; negative”.

`C(=C/c1ccccc1)/c1ccccc1` was tested, and the mutagenic call (Test System: AMES SALMONELLA TYPHIMURIUM, Strain/Indicator: TA98, Metabolic Activation: HAMSTER, LIVER, S-9, AROCLOR 1254, Method: PREINCUBATION) was “inactive; negative”, the mutagenic call (Test System: AMES SALMONELLA TYPHIMURIUM, Strain/Indicator: TA98, Metabolic Activation: NONE, Method: PREINCUBATION) was “inactive; negative” and the mutagenic call (Test System: AMES SALMONELLA TYPHIMURIUM, Strain/Indicator: TA98, Metabolic Activation: RAT, LIVER, S-9, AROCLOR 1254, Method: PREINCUBATION) was “inactive; negative”. The mutagenic call (Test System: AMES SALMONELLA TYPHIMURIUM, Strain/Indicator: TA100, Metabolic Activation: HAMSTER, LIVER, S-9, AROCLOR 1254, Method: PREINCUBATION) was “inactive; negative”, the mutagenic call (Test System: AMES SALMONELLA TYPHIMURIUM, Strain/Indicator: TA100, Metabolic Activation: NONE, Method: PREINCUBATION) was “inactive; negative” and the mutagenic call (Test System: AMES SALMONELLA TYPHIMURIUM, Strain/Indicator: TA100, Metabolic Activation: RAT, LIVER, S-9, AROCLOR 1254, Method: PREINCUBATION) was “inactive; negative”. The mutagenic call (Test System: AMES SALMONELLA TYPHIMURIUM, Strain/Indicator: TA1535, Metabolic Activation: HAMSTER, LIVER, S-9, AROCLOR 1254, Method: PREINCUBATION) was “inactive; negative”, the mutagenic call [3] was “inactive; negative” and the mutagenic call (Test System: AMES SALMONELLA TYPHIMURIUM, Strain/Indicator: TA1535, Metabolic Activation: RAT, LIVER, S-9, AROCLOR 1254, Method: PREINCUBATION) was “inactive; negative”. For the same compound, the mutagenic call (Test System: AMES SALMONELLA TYPHIMURIUM, Strain/Indicator: TA1537, Metabolic Activation: HAMSTER, LIVER, S-9, AROCLOR 1254, Method: PREINCUBATION) was “inactive; negative”, the mutagenic call [4] was “inactive; negative” and the mutagenic call (Test System: AMES SALMONELLA TYPHIMURIUM, Strain/Indicator: TA1537, Metabolic Activation: RAT, LIVER, S-9, AROCLOR 1254, Method: PREINCUBATION) was “inactive; negative”.

With `BrCc1cc2c3c(cccc3c1)-c1ccccc1-2` the mutagenic call [1] was “active; positive” and the mutagenic call [2] was “active; positive”.

With `CC(=O)N[C@@H](CS/C(F)=C(\F)C(F)(F)F)C(=O)O` the mutagenic call (Test System: AMES SALMONELLA TYPHIMURIUM, Strain/Indicator: TA100, Metabolic Activation: RAT, KIDNEY, S-9, AROCLOR 1254, Method: STANDARD PLATE) was “inactive; negative”.
